Where only a bound is given, the exact number is not on record here.

The target in this test is T1, Vitronectin receptor αVβ3 (Homo sapiens, UniProt P05106+P06756).
T1 construct: expressed in transfected cells; host or cells: 512P5 cells (plasma membrane preparation)
T1 sequence (P06756 31-889 limits assumed): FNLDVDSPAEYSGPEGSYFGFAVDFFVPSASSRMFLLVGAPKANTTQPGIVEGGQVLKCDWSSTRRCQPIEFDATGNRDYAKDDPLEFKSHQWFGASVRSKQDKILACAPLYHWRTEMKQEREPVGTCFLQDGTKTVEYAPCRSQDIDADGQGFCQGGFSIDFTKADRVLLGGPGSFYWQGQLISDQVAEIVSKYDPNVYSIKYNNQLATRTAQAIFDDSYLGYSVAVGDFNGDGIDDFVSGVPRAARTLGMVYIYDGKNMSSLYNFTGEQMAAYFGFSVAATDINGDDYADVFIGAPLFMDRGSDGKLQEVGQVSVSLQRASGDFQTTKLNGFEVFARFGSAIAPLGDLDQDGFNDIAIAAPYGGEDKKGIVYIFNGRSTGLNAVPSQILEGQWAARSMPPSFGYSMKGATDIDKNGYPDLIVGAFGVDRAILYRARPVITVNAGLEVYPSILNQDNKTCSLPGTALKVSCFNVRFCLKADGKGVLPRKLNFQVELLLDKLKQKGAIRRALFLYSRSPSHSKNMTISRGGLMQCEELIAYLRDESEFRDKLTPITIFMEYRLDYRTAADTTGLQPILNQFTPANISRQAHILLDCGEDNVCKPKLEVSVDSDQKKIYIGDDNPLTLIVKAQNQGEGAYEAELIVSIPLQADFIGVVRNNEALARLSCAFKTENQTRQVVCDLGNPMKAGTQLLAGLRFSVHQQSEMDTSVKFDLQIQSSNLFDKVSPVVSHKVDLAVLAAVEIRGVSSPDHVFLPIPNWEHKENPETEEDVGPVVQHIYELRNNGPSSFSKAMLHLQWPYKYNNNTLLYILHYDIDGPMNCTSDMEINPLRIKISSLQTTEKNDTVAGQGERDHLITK
T1 sequence (P06756 891-1048 partner limits assumed): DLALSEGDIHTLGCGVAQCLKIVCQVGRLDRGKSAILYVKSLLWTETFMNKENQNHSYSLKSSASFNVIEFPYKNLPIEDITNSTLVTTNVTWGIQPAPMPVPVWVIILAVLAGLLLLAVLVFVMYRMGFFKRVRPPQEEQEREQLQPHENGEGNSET
T1 sequence (P05106 27-788): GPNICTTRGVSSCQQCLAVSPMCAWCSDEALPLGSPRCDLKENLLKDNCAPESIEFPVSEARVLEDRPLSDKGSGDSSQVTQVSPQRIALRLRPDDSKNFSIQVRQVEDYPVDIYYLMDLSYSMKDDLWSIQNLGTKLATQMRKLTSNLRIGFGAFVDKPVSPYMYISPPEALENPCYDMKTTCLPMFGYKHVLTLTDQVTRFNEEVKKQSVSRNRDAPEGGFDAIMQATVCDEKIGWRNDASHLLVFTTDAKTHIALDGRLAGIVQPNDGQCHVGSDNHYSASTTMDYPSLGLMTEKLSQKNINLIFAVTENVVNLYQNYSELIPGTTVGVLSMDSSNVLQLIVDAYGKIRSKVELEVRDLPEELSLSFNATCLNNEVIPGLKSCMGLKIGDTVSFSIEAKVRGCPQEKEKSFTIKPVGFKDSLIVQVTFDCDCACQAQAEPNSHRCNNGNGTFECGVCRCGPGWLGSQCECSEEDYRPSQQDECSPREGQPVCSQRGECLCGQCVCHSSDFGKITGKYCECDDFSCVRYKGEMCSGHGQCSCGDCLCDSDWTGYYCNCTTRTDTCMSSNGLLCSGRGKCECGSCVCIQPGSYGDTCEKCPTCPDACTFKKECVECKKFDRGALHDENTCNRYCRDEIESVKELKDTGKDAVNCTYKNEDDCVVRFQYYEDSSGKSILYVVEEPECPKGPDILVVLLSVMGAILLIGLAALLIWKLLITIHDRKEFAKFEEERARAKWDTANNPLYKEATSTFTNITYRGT
Briefly: Vitronectin Receptor αVβ3 Binding Assay. The note with it: read-out: VnR (IC50μM).
For `C#CCOC(=O)N[C@@H](CNC(=O)c1ccc(OCCNC2=NCCCN2)cc1O)C(=O)O` [Example 13, (2S)-3-({2-hydroxy-4-[2-(1,4,5,6-tetrahydropyrimidin-2-ylamino)ethoxy]benzoyl}-amino)-2-{[(prop-2-ynyloxy)carbonyl]amino}propanoic acid], the IC50 is 0.183 µM.
For the compound `O=C(N[C@@H](CNC(=O)c1ccc(OCCNC2=NCCCN2)cc1O)C(=O)O)OCc1ccccc1` [Example 14, (2S)-2-{[(benzyloxy)carbonyl]amino}-3-({2-hydroxy-4-[2-(1,4,5,6-tetrahydropyrimidin-2-ylamino)ethoxy]benzoyl}amino)propanoic acid], the IC50 came out at 0.0445 µM.
In the case of `O=C(Nc1ccccc1)N[C@@H](CNC(=O)c1ccc(OCCNC2=NCCCN2)cc1O)C(=O)O` [Example 20, (2S)-2-[(anilinocarbonyl)amino]-3-({2-hydroxy-4-[2-(1,4,5,6-tetrahydropyrimidin-2-ylamino)ethoxy]benzoyl}amino)propanoic acid], the IC50 was determined as 1.44 µM.
For the compound `O=C(NC1CCCCC1)N[C@@H](CNC(=O)c1ccc(OCCNC2=NCCCN2)cc1O)C(=O)O` [Example 21, (2S)-2-{[(cyclohexylamino)carbonyl]amino}-3-({2-hydroxy-4-[2-(1,4,5,6-tetrahydropyrimidin-2-ylamino)ethoxy]benzoyl}amino)propanoic acid], the IC50 came out at 1.52 µM.
For the compound `Cc1ccc(NC(=O)N[C@@H](CNC(=O)c2ccc(OCCNC3=NCCCN3)cc2O)C(=O)O)cc1` [Example 23, (2S)-3-({2-hydroxy-4-[2-(1,4,5,6-tetrahydropyrimidin-2-ylamino)ethoxy]benzoyl}-amino)-2-[(4-toluidinocarbonyl)amino]propanoic acid], the IC50 came out at 1.02 µM.
As to `Cc1ccccc1NC(=O)N[C@@H](CNC(=O)c1ccc(OCCNC2=NCCCN2)cc1O)C(=O)O` [Example 24, (2S)-3-({2-hydroxy-4-[2-(1,4,5,6-tetrahydropyrimidin-2-ylamino)ethoxy]benzoyl}-amino)-2-[(2-toluidinocarbonyl)amino]propanoic acid], the IC50 turned out to be 1.48 µM.
As to `COc1ccccc1NC(=O)N[C@@H](CNC(=O)c1ccc(OCCNC2=NCCCN2)cc1O)C(=O)O` [Example 25, (2S)-3-({2-hydroxy-4-[2-(1,4,5,6-tetrahydropyrimidin-2-ylamino)ethoxy]benzoyl}-amino)-2-{[(2-methoxyanilino)carbonyl]amino}propanoic acid], the IC50 turned out to be 0.674 µM.
In the case of `O=C(Nc1ccccc1Cl)N[C@@H](CNC(=O)c1ccc(OCCNC2=NCCCN2)cc1O)C(=O)O` [Example 27, (2S)-2-{[(2-chloroanilino)carbonyl]amino}-3-({2-hydroxy-4-[2-(1,4,5,6-tetrahydropyrimidin-2-ylamino)ethoxy]benzoyl}amino)propanoic acid], the IC50 came out at 0.331 µM.
Take `O=C(Nc1ccccc1Br)N[C@@H](CNC(=O)c1ccc(OCCNC2=NCCCN2)cc1O)C(=O)O` [Example 28, (2S)-2-{[(2-bromoanilino)carbonyl]amino}-3-({2-hydroxy-4-[2-(1,4,5,6-tetrahydropyrimidin-2-ylamino)ethoxy]benzoyl}amino)propanoic acid]: the IC50 was 0.159 µM.
On to `O=C(Nc1ccccc1-c1ccccc1)N[C@@H](CNC(=O)c1ccc(OCCNC2=NCCCN2)cc1O)C(=O)O` [Example 29, (2S)-2-{[([1,1′-biphenyl]-2-ylamino)carbonyl]amino}-3-({2-hydroxy-4-[2-(1,4,5,6-tetrahydropyrimidin-2-ylamino)ethoxy]benzoyl}amino)propanoic acid], for which the IC50 is 0.405 µM.
Consider `O=C(Nc1ccc(Cl)cc1)N[C@@H](CNC(=O)c1ccc(OCCNC2=NCCCN2)cc1O)C(=O)O` [Example 30, (2S)-2-{[(4-chloroanilino)carbonyl]amino}-3-({2-hydroxy-4-[2-(1,4,5,6-tetrahydropyrimidin-2-ylamino)ethoxy]benzoyl}amino)propanoic acid], for which the IC50 was 1.27 µM.
Consider `O=C(Nc1cccc2ccccc12)N[C@@H](CNC(=O)c1ccc(OCCNC2=NCCCN2)cc1O)C(=O)O` [Example 31, (2S)-3-({2-hydroxy-4-[2-(1,4,5,6-tetrahydropyrimidin-2-ylamino)ethoxy]benzoyl}-amino)-2-{[(1-naphthylamino)carbonyl]amino}propanoic acid], for which the IC50 was found to be 0.261 µM.
In the case of `CC(C)(C)COC(=O)N[C@@H](CNC(=O)c1ccc(OCCNc2ncccn2)cc1O)C(=O)O` [Example 53, (2S)-3-({2-hydroxy-4-[2-(pyrimidin-2-ylamino)ethoxy]benzoyl}-amino)-2-{[(neopentyloxy)carbonyl]amino}propanoic acid], the IC50 stood at 34 µM.
For `O=C(N[C@@H](CNC(=O)c1ccc(OCCNc2ncccn2)cc1O)C(=O)O)Oc1ccccc1` [Example 54, (2S)-3-({2-hydroxy-4-[2-(pyrimidin-2-ylamino)ethoxy]benzoyl}amino)-2-[(phenoxycarbonyl)amino]propanoic acid], the IC50 is 34 µM.
In the case of `O=C(N[C@@H](CNC(=O)c1ccc(OCCNc2ncccn2)cc1O)C(=O)O)OCc1ccccc1` [Example 55, (2S)-2-{[(benzyloxy)carbonyl]amino}-3-({2-hydroxy-4-[2-(pyrimidin-2-ylamino)ethoxy]benzoyl}amino)propanoic acid], the IC50 is 101 µM.
Take `CC(C)COC(=O)N[C@@H](CNC(=O)c1ccc(OCCNc2ncccn2)cc1O)C(=O)O` [Example 56, (2S)-3-({2-hydroxy-4-[2-(pyrimidin-2-ylamino)ethoxy]benzoyl}amino)-2-[(isobutoxycarbonyl)amino]propanoic acid]: the IC50 came to 85.8 µM.
As to `CCCCCCCCOC(=O)N[C@@H](CNC(=O)c1ccc(OCCNc2ncccn2)cc1O)C(=O)O` [Example 58, (2S)-3-({2-hydroxy-4-[2-(pyrimidin-2-ylamino)ethoxy]benzoyl}amino)-2-{[(octyloxy)carbonyl]amino}propanoic acid], the IC50 is 100 µM.
The value for `CCCCOC(=O)N[C@@H](CNC(=O)c1ccc(OCCNc2ncccn2)cc1O)C(=O)O` [Example 59, (2S)-2-[(butoxycarbonyl)amino]-3-({2-hydroxy-4-[2-(pyrimidin-2-ylamino)ethoxy]benzoyl}amino)propanoic acid] was 100 µM.
The value for `CCCCCCOC(=O)N[C@@H](CNC(=O)c1ccc(OCCNc2ncccn2)cc1O)C(=O)O` [Example 62, (2S)-2-{[(hexyloxy)carbonyl]amino}-3-({2-hydroxy-4-[2-(pyrimidin-2-ylamino)-ethoxy]benzoyl}amino)propanoic acid] was 100 µM; that for `COC(=O)N[C@@H](CNC(=O)c1ccc(OCCNc2ncccn2)cc1O)C(=O)O` [Example 65, (2S)-3-({2-hydroxy-4-[2-(pyrimidin-2-ylamino)ethoxy]benzoyl}amino)-2-[(methoxycarbonyl)amino]propanoic acid] was 100 µM.
Consider `CCOC(=O)N[C@@H](CNC(=O)c1ccc(OCCNc2ncccn2)cc1O)C(=O)O` [Example 66, (2S)-2-[(ethoxycarbonyl)amino]-3-({2-hydroxy-4-[2-(pyrimidin-2-ylamino)-ethoxy]benzoyl}amino)propanoic acid], for which the IC50 turned out to be 100 µM.
With `CCCOC(=O)N[C@@H](CNC(=O)c1ccc(OCCNc2ncccn2)cc1O)C(=O)O` [Example 67, (2S)-3-({2-hydroxy-4-[2-(pyrimidin-2-ylamino)ethoxy]benzoyl}amino)-2-[(propoxycarbonyl)amino]propanoic acid], the IC50 was 100 µM.
As for `CC(C)OC(=O)N[C@@H](CNC(=O)c1ccc(OCCNc2ncccn2)cc1O)C(=O)O` [Example 68, (2S)-3-({2-hydroxy-4-[2-(pyrimidin-2-ylamino)ethoxy]benzoyl}amino)-2-[(isopropoxycarbonyl)amino]propanoic acid], the IC50 came to 100 µM.
For `C=CCOC(=O)N[C@@H](CNC(=O)c1ccc(OCCNc2ncccn2)cc1O)C(=O)O` [Example 69, (2S)-2-{[(allyloxy)carbonyl]amino}-3-({2-hydroxy-4-[2-(pyrimidin-2-ylamino)ethoxy]benzoyl}amino)propanoic acid], the IC50 was found to be 100 µM.
For `C=CCCOC(=O)N[C@@H](CNC(=O)c1ccc(OCCNc2ncccn2)cc1O)C(=O)O` [Example 70, (2S)-2-{[(but-3-enyloxy)carbonyl]amino}-3-({2-hydroxy-4-[2-(pyrimidin-2-ylamino)ethoxy]benzoyl}amino)propanoic acid] the value was 100 µM; for `O=C(Nc1ccccc1)N[C@@H](CNC(=O)c1ccc(OCCNc2ncccn2)cc1O)C(=O)O` [Example 71, (2S)-2-[(anilinocarbonyl)amino]-3-({2-hydroxy-4-[2-(pyrimidin-2-ylamino)ethoxy]-benzoyl}amino)propanoic acid], > 1 µM; for `CC(C)(C)NC(=O)N[C@@H](CNC(=O)c1ccc(OCCNc2ncccn2)cc1O)C(=O)O` [Example 72, (2S)-2-{[(tert-butylamino)carbonyl]amino}-3-({2-hydroxy-4-[2-(pyrimidin-2-ylamino)ethoxy]benzoyl}amino)propanoic acid], > 1 µM.
In the case of `CCCCNC(=O)N[C@@H](CNC(=O)c1ccc(OCCNc2ncccn2)cc1O)C(=O)O` [Example 73, (2S)-2-{[(butylamino)carbonyl]amino}-3-({2-hydroxy-4-[2-(pyrimidin-2-ylamino)ethoxy]benzoyl}amino)propanoic acid], the IC50 is > 1 µM.
As for `Cc1ccccc1NC(=O)N[C@@H](CNC(=O)c1ccc(OCCNc2ncccn2)cc1O)C(=O)O` [Example 78, (2S)-3-({2-hydroxy-4-[2-(pyrimidin-2-ylamino)ethoxy]benzoyl}amino)-2-[(2-toluidinocarbonyl)amino]propanoic acid], the IC50 was > 1 µM.
For the compound `COc1ccccc1NC(=O)N[C@@H](CNC(=O)c1ccc(OCCNc2ncccn2)cc1O)C(=O)O` [Example 79, (2S)-3-({2-hydroxy-4-[2-(pyrimidin-2-ylamino)ethoxy]benzoyl}amino)-2-{[(2-methoxyanilino)carbonyl]amino}propanoic acid], the IC50 is > 1 µM.
Regarding `O=C(Nc1ccccc1Cl)N[C@@H](CNC(=O)c1ccc(OCCNc2ncccn2)cc1O)C(=O)O` [Example 80, (2S)-2-{[(2-chloroanilino)carbonyl]amino}-3-({2-hydroxy-4-[2-(pyrimidin-2-ylamino)ethoxy]benzoyl}amino)propanoic acid], the IC50 was > 1 µM.

The values are drawn from patent publication US20030186967A1, “Acylresorcinol derivatives are selective vitronectin receptor inhibitors” (American Home Products Corporation, priority 1998, published 2003).
